# Source: patent publication US7429474B2, “2-O sulfatase compositions and methods of analyzing therewith” (Massachusetts Institute of Technology, priority 2003, dated 2008)
# Test system: Δ 4,5 glycuronidase
# Test: Δ 4,5 glycuronidase activity (loss of UV absorption at 232 nm)
# Type: biochemical, F. heparinum
# Conditions: 2 mM substrate, 250 nM Δ 4,5 enzyme alone, 30° C.
# Protocol: The substrate-product relationship between the two enzymes was examined by directly measuring Δ 4,5 glycuronidase activity either before or following the addition of recombinant 2-O sulfatase. Reactions were carried out at 30° C. and included 50 mM MES, pH 6.5, 100 mM NaCl, and 2 mM ΔU2SHNS in a 100 μL reaction volume. In these experiments, 250 nM Δ 4,5 glycuronidase and 25 nM 2-O ΔN^1-24 were sequentially added as follows: Δ 4,5 alone, Δ 4,5 followed by 2-O sulfatase, or 2-O sulfatase followed by Δ 4,5.
# We hypothesized that, an obligatory substrate-product relationship between the 2-O sulfatase and the Δ 4,5 glycuronidase may exist. We examined a possible kinetic relationship between these two enzymes by looking at their sequential action (FIG. 7). In this experiment, Δ 4,5 glycuronidase activity was measured directly either […] or following the addition of the recombinant 2-O sulfatase using the disaccharide substrate ΔU2SHNS. […] In the reciprocal experiment (i.e., whereby the 2-O sulfatase was added second), we observed an initial lag in Δ 4,5 activity. This lag was followed by a linear Δ 4,5 activity, albeit at a slower rate than in the case where the 2-O sulfatase was added first. The observed delay in activity was presumably due to the prerequisite 2-O desulfation of the substrate which must occur prior to being acted on by the glycuronidase.
compound,measurement,value
O=C(O)C1=C[C@H](O)[C@@H](OS(=O)(=O)O)[C@H](O[C@H]2[C@H](O)[C@@H](NS(=O)(=O)O)C(O)O[C@@H]2CO)O1 (stereo partly shown) [ΔU2SHNS],glycuronidase-mediated hydrolysis,completely refractory
